Patent US7148014B2, “Methods of inhibiting phagocytosis” (University of Pennsylvania, priority 1993, dated 2006)

What was measured:
[1] = test system: FcγRIIA mediated phagocytosis in monocytes; test: Phagocytosis of IgG-sensitized RBCs (EA) by cultured monocytes treated with ODN-liposome complexes; format: cell-based, human; settings: for phagocytic index (PI): untreated PI 220±8.8
Protocol: Monocytes (1×10^5 cells/ml) were incubated with complexes of 4 μg/ml of LIPOFECTAMINE and ODNs (1.0 μM each of the linear control or the linear Syk antisense ODNs, or 0.2 μM each of the stem-loop control or the stem-loop Syk antisense ODN) for 2 days, and the phagocytosis of IgG-sensitized red blood cells (EA) was examined. Phagocytic index (PI)=number of ingested RBCs/100 cells. Each bar represents the mean±SEM of three separate experiments.
(§1) Antisense or scrambled control ODNs were modified to be protected from nucleases. One phosphodiester backbone at the 5-prime terminus and two at the 3-prime terminus were modified with phosphorothioate. Prediction of secondary structures of Syk mRNA (Law et al, J. Biol. Chem. 269:12310 (1994)) and ODNs were carried out with the MacDNASIS program (Hitachi Software, San Bruno, Calif.) on a Macintosh computer. Linear 17 mer Syk antisense ODN, having the sequence of 5′-[…]-3′ (SEQ ID NO:9), targets the area surrounding the translation initiation codon of Syk mRNA. Stem-loop Syk antisense ODN is a 57 mer containing sequences complementary to three different target sites, target I (the area of the translation initiation, nucleotide no. 159 to 173) , target II (451 to 463) , and target III (802 to 816) of Syk mRNA (Law et al, J. Biol. Chem. 269:12310 (1994)) (FIG. 5). The stem-loop Syk antisense ODN forms a stem and loop structure by itself and was designed to contain minimal intramolecular secondary structures in the loop domain (FIG. 6) . The sequence of the stem-loop Syk antisense ODN is 5′ - […] C-3′ (SEQ ID NO:10). Linear 17 mer control ODN has a random sequence of 5′-[…]-3′ (SEQ ID NO:11). Stem-loop 61 mer control ODN has a random sequence of 5′ -[…]- 3′ (SEQ ID NO:12) within the loop domain. The linear and stem-loop control ODNs were also modified at both the 5-prime and 3-prime termini by phosphorothioates. Preparation of liposomes: One μg each of the control scrambled phosphodiester ODNs, the linear and stem-loop Syk antisense ODNs in 50 μl of PBS were incubated with 4 μg (2 μl) of LIPOFECTAMINE™ (GIBCO BRL, Life Technologies, Inc. Gaithersburg, Md.). The ODN-liposome complexes were allowed to form at the room temperature for 45 min. Monocytes isolation and culture: Peripheral blood mononuclear cells from healthy individuals were isolated by a standard adherence procedure (Darby et al, J. Immunol. 152:5429 (1994)). Briefly, the heparinized blood was centrifuged on Ficoll-Hypaque (Lymphocyte Separation Medium; Organon Teknika, Durham, N.C.) and interface cells were washed twice in PBS. Mononuclear cells were resuspended in complete medium containing RPMI 1640 (GIBCO BRL, Life Technologies, Inc. Gaithersburg, Md.) with 10% heat-inactivated FCS and 2 mM L-glutamine. Cells were allowed to adhere at 37° C. onto tissue culture flasks precoated with FCS. After 45 to 90 min non-adherent cells were removed with extensive washing in HBSS. Cells were harvested by vigorous agitation. The yield of monocytes ranged from 2–6×10^7 cells/500 ml of blood. Monocytes were routinely more than 98% viable judged by trypan blue exclusion. Isolated monocytes were maintained in RPMI 1640 supplemented with L-glutamine (2 mM) and 10% heat-inactivated FCS at 37° C. with 5% CO2. Oligodeoxynucleotides treatment of cells. 1×10^5 Monocytes were incubated with ODN-liposome complexes containing 2 μg/ml of LIPOFECTAMINE and 0.5 μM of the linear control, 0.5 μM of the linear Syk antisense ODN or 0.1 μM of the stem-loop control, 0.1 μM of the stem-loop Syk antisense ODN in 0.3 ml of RPMI 1640 medium without FCS in a 24-well plate (Falcon; Becton Dickinson Labware, Lincoln Park, N.J.) at 37° C. for 4 h. Medium was added to a 1 ml final volume with RPMI 1640 containing 10% FCS and cells were then incubated at 37° C. for 2 days. […]

[2] = Stability of antisense ODNs to serum nucleases; format: in vitro ADME; settings: for resistance to serum nucleases: modified with phosphorothioate
Syk mRNA = test: RT-PCR / Southern hybridization of Syk mRNA in monocytes; format: cell-based, human; settings: 2 days
Protocol: FIG. 8. Effect of Syk antisense ODNs on Syk mRNA in monocytes. Total RNA was isolated from monocytes (1×10^5 cells/ml) treated with complexes of 4 μg/ml of LIPOFECTAMINE and the ODNs (1.0 μM each of the linear control or the linear Syk antisense ODN, or 0.2 μM each of the stem-loop control or the stem-loop Syk antisense ODN) for 2 days, and cDNA was synthesized from total RNA with random hexanucleotide primers. PCR was performed with Syk cDNA as templates with two Syk primers (Syk-H and Syk-M). PCR products were analyzed by Southern hybridization and hybridized bands were visualized by chemiluminescent detection reagents.
as §1, with “PBS.” for “PBS. Mononuclear cells were resuspended in complete medium containing RPMI 1640 (GIBCO BRL, Life Technologies, Inc. Gaithersburg, Md.) with 10% heat-inactivated FCS and 2 mM L-glutamine. Cells were allowed to adhere at 37° C. onto tissue culture flasks precoated with FCS. After 45 to 90 min non-adherent cells were removed with extensive washing in HBSS. Cells were harvested by vigorous agitation. The yield of monocytes ranged from 2–6×10^7 cells/500 ml of blood. Monocytes were routinely more than 98% viable judged by trypan blue exclusion. Isolated monocytes were maintained in RPMI 1640 supplemented with L-glutamine (2 mM) and 10% heat-inactivated FCS at 37° C. with 5% CO2. Oligodeoxynucleotides treatment of cells. 1×10^5 Monocytes were incubated with ODN-liposome complexes containing 2 μg/ml of LIPOFECTAMINE and 0.5 μM of the linear control, 0.5 μM of the linear Syk antisense ODN or 0.1 μM of the stem-loop control, 0.1 μM of the stem-loop Syk antisense ODN in 0.3 ml of RPMI 1640 medium without FCS in a 24-well plate (Falcon; Becton Dickinson Labware, Lincoln Park, N.J.) at 37° C. for 4 h. Medium was added to a 1 ml final volume with RPMI 1640 containing 10% FCS and cells were then incubated at 37° C. for 2 days.”

[3] = test system: COS-1 cells transfected with FcγRIIIA-α/γ; test: Phagocytosis of IgG-sensitized RBCs (EA) by transfected COS-1 cells; format: cell-based; settings: for phagocytic activity restored after washing: pretreated 400 μM
Protocol: (§2) FcγRIIIA isoforms, FcγRIIIA-γγ, FcγRIIIA-ζζ, were generated by cotransfection of COS-1 cells with cDNA of γ or ζ as well as cDNA of α. Transfections of cDNAs were carried out with a modified DEAE-Dextran method. Briefly, 300,000 COS-1 cells were seeded on 35 mm well plates 24 hours prior to transfection. Plates of 70 to 80% confluence were washed twice and incubated for 30 minutes with Dulbeco's Modification of Eagle's Medium (DMEM, Gibco BRL, Grand Island, N.Y.) before transfection. Four μg of plasmid DNA (0.5 μg/μl) was slowly added to 1 ml of a transfection buffer containing Nu medium (DMEM with 10% of NuSerum [Collaborative Biomedical, Two Oak Park, Bedford, Mass.], 1 mg/ml of DEAE Dextran and 100 μM chloroquine. The transfection buffer containing DNA was added to COS-1 cells with incubation for 4 hours at 37° C. Cells were then shocked with 10%. DMSO in phosphate buffered saline (PBS) for 2 minutes, washed twice with DMEM and grown in NuSerum supplemented DMEM. Cells were studied 48 hours following transfection.
(§3) Binding and pragocytosis of IgG-sensitized RSCs (EA): Sterile sheep red blood cells (10^9/ml) in calcium and magnesium-free PBS were sensitized by incubation with an equal volume of a subagglutinating titer of rabbit anti-sheep RBC antibody (Cappel Laboratories, Cochranville, Pa.). The IgG-sensitized RBCs (EA) were washed twice with PBS and resuspended to a final concentration of 10^9/ml for overlaying on transfected COS-1 cells. Cells were examined for rosetting (>10 EA per COS-1 cell) and phagocytosis as described previously (Indik et al, J. Clin. Invest. 88:A66 (1991)). For the analysis of phagocytosis, COS-1 cells bound with EA (after three washings) were subjected to a brief hypotonic shock (35 seconds) with hypotonic PBS to remove surface bound EA. The cells were then stained with Wright-Giemsa staining solutions, and phagocytosis (ingested EA) was determined by light microscopy. Results obtained were analyzed by Student's T-test.

[4] = test system: COS-1 cells transfected with FcγRIIIA-α/γ; test: Binding (rosetting) of EA by transfected COS-1 cells; format: cell-based
Protocol: as §2, §3

[5] = ODN 0.2 μM, LIPOFECTAMINE complexes, 2 days
[6] = ODN 1 μM, LIPOFECTAMINE complexes, 2 days

5′ - GGGGGGGCTGTCAGCCATGCCGTGTCTTGTCTTTGTCGCTTCTTGAGGAGCCCCCC C-3′ (SEQ ID NO:10) (antisense GGGGGGGCTGTCAGCCATGCCGTGTCTTGTCTTTGTCGCTTCTTGAGGAGCCCCCCC; DNA, backbone and methylation of C not given here; stem-loop hairpin, phosphorothioates at both termini, further chemistry not fully specified) [stem-loop Syk antisense ODN, 57 mer stem-loop ODN complementary to three target sites of human Syk mRNA, phosphorothioate-modified termini]
reduction of the phagocytic signal compared with a mixture of three linear antisense oligonucleotides [1]: more dramatically
reduction in phagocytosis (phagocytic index) [1, 5]: 89%
phagocytic index (PI) [1, 5]: 24±4.2
stability when complexed with liposomes ([2]; complexed with liposomes): markedly improved
resistance to serum nucleases [2]: partial resistance
stability in serum ([2]; with phosphorothioate modifications): exceptional stability
effect on Syk mRNA (Syk mRNA; ODN 0.2 μM): completely eliminated

5′ -ATGGAATCATCTTGGGCATTCATTCGTTCCTCAAAGAAGAATATGAA- 3′ (SEQ ID NO:12) (listed as DNA, chemistry not given here) [stem-loop control, Stem-loop 61 mer scrambled control ODN]
effect on FcγRIIA mediated phagocytosis ([1]; ODN 0.2 μM): did not significantly affect
effect on Syk mRNA (Syk mRNA; ODN 0.2 μM): did not reduce

5′-CGCTGTCAGCCATGCCG-3′ (SEQ ID NO:9) (DNA, backbone and methylation of C not given here; phosphorothioate linkages at both 5' and 3' termini, further chemistry not fully specified) [linear Syk antisense ODN, Linear 17 mer, phosphorothioate-modified termini, targets area surrounding translation initiation codon of human Syk mRNA]
Phagocytosis reduced by (phagocytic index) [1, 6]: 49%
phagocytic index (PI) [1, 6]: 113±12.3
resistance to serum nucleases [2]: partial resistance
effect on Syk mRNA (Syk mRNA; ODN 1.0 μM): substantially reduced

5′-GCCCAAGATGATTCCAG-3′ (SEQ ID NO:11) (phosphorothioate linkages at both termini, number not given here) [linear control]
effect on FcγRIIA mediated phagocytosis ([1]; ODN 1 μM): did not significantly affect
effect on Syk mRNA (Syk mRNA; ODN 1.0 μM): did not reduce

N#CC(C#N)=Cc1ccc(O)c(O)c1 [Tyr23, tyrphostin 23]
PI (Phagocytic Index) ([3]; Tyr23 25 μM): 68 ± 4
PI (Phagocytic Index) ([3]; Tyr23 50 μM): 26 ± 7
PI (Phagocytic Index) ([3]; Tyr23 100 μM): 16 ± 6
PI (Phagocytic Index) ([3]; Tyr23 200 μM): 1.2 ± 1
PI (Phagocytic Index) ([3]; Tyr23 400 μM): 0
PI (Phagocytic Index) ([3]; Tyr23 400 μM + washing (3 hr wash)): 63 ± 7
IC50 ([3]; dose dependent, p<0.01, read-out: concentration giving 50% inhibition of phagocytosis): 25 µM
concentration giving complete inhibition of phagocytosis ([3]; p<0.01): 200 to 400 µM
phagocytic activity restored after washing ([3]; 3 hr wash): partially
phagocytic activity restored after washing ([3]; overnight wash (data not shown)): completely
viability of transfectants on inhibition of phagocytosis ([3]; pretreated with 400 μM followed by washing): not associated with reduction in viability
effect on binding of EA [4]: did not affect
Rosetting (% Cells) ([4]; Tyr23 25 μM): 52 ± 9 % Cells
Rosetting (% Cells) ([4]; Tyr23 50 μM): 52 ± 8 % Cells
Rosetting (% Cells) ([4]; Tyr23 100 μM): 49 ± 7 % Cells
Rosetting (% Cells) ([4]; Tyr23 200 μM): 47 ± 5 % Cells
Rosetting (% Cells) ([4]; Tyr23 400 μM): 48 ± 3 % Cells
Rosetting (% Cells) ([4]; Tyr23 400 μM + washing): 44 ± 6 % Cells
